# Results reported in patent publication US6355232B1, “Agent for protecting skin and hair moisture” (Takasago International Corporation, priority 1996, dated 2002).
# Experiments:
# [1] = Water-barrier function (WBF) test, water-evaporation rate; format: physicochemical; conditions: for Water-evaporation rate (mg/hr/cm2): ceramide/CL/CS (40/30/30) dispersed with 10% arginine oleate, 37° C., humidity 40%
# Description: (§1) A sample solution was prepared, based upon the lamellar liquid crystal (LLC) method of various methods for preparing liposome [Colloids and Surfaces, 69, p.125 (1992)]. Appropriate amounts of the lipid mixture (for example, Ce II (2S,3R)/CL/CS, a weight ratio of 40/30/30, corresponding to the LLC region of the phase diagram) were weighed into a test tube, allowed to stand at 135° C. for 10 minutes, cooled down to room temperature and then appropriate amounts of propylene glycol/glycerol (a weight ration of 1/1) were added to the mixture. These samples were left at 135° C. for 10 minutes and then shaken vigorously. This procedure was repeated three times. Then, oleic acid and an aqueous solution of L-arginine were added in turn and shaken (80 to 90° C.). The LLC gel thus obtained was diluted with a buffer of pH 6.86 to give a vesicle solution of a uniform mixture of ceramides.
# A sample solution was coated over a supporting membrane covered with a protein at the surface and left under vacuum overnight to remove water thoroughly. The membrane was fixed in the stainless dish containing 20 ml of water and allowed to stand at 37° C. and a humidity of 40%. The evaporated water was calculated per time unit and area unit to determine the water-evaporation rate of WBF.
# All samples tested as shown in Table 4 were mixtures of ceramide/CL/CS (40/30/30) and dispersed with 10% arginine oleate.
# All samples tested as shown in Table 5 were mixtures of ceramide/CL/CS (40/30/30) and dispersed with 10% arginine oleate.
# [2] = Test on conditioner effect to hair (WHC); conditions: ceramide/CL/SA (40/20/40) dispersed with 10% arginine oleate, 35° C., humidity 70% overnight
# Description: Hairs were treated with chloroform/methanol (2/1) and bundles of hairs were coated with samples, rinsed away and then dried under vacuum overnight. They were left at 35° C. and a humidity of 70% overnight. They were weighed to determine the hydrated amount to the dried hairs as WHC.
# All tested samples were the (2S,3R) type and the (2S,3S) type and were mixtures of ceramide/CL/SA (=stearic acid) (40/20/40). They were dispersed with 10% arginine oleate.
# [3] = Solubility in cosmetic solvents; format: physicochemical
# Description: Solubilities of ceramide-II (hereinafter referred to as CeII) of (2S,3R) type and ceramides of other optical isomers were studied. Ethanol, isopreneglycol, propylenglycol, glycerol, oleic acid, ethyl oleate and isopropyl myristate were used as the cosmetic solvents. Each sample was heated up to about 90° C. with vigorous shaking and cooled down to room temperature and then observed visually. 1.
# [4] = tested on: forearm treated with chloroform/methanol (damaged skin); assay: Transepidermal water-loss (TEWL) test; format: in vivo, human; conditions: for TEWL (g/m^2/hr): ceramide/CL/SSL (50/20/30) dispersed with 10% arginine oleate, forearm, twice per day for 2 days, data after 10 hours
# Description: The forearm was treated with chloroform/methanol (1/1), each sample was coated on the site and TEWL was determined (n=4, twice per day, used for 2 days).
# All tested samples were the (2S,3R) type and the (2S,3S) type and were mixtures of ceramide/CL/SSL (=sodium stearyllactate) (50/20/30). They were dispersed with 10% arginine oleate.
# [5] = Water-holding capacity (WHC) test of sample solution; format: physicochemical
# Description: as §1
# A sample solution was applied to a small petri dish and left at 37° C. and a humidity of 40%. The water evaporated as the time lapsed was measured and the ratio of the water remaining in the sample was calculated from the measured value to study WHC.
# The samples tested as shown in Table 2 were all mixtures of ceramide/CL/CS (40/30/30) and dispersed with 10% arginine oleate. A control was an aqueous solution of propyleneglycol/glycerol (1/1). […]
Compound,Water-evaporation rate (mg/hr/cm2) ([1]; Table 5),Water-holding capacity (%) [2],Water-evaporation rate (mg/hr/cm2) ([1]; Table 4),capacity to restrain the water evaporation ([1]; versus other types),solubility in cosmetic solvents ([3]; compared among Ce II isomers),level dissolved in ethanol ([3]; ethanol),TEWL (g/m^2/hr) [4],TEWL improvement ([4]; compared with uncoated sites / non-treated normal skin),melting point,"Water-holding capacity (%) (After 5 hours) ([5]; ceramide/CL/CS (40/30/30) dispersed with 10% arginine oleate, 37° C., humidity 40%, after 5 hours)","water-holding capacity compared ([5]; versus the racemates, the SP ceramide, etc.)"
"CCCCCCCCCCCCCCCCCC(=O)N[C@H](CO)[C@@H](O)CCCCCCCCCCCCCCC [(2R,3S), erythro (2R, 3S) type of ceramide-II, reference compound]",2.9 mg/hr/cm2,,,,,,,,,,
"CCCCCCCCCCCCCCCCCC(=O)N[C@@H](CO)[C@H](O)CCCCCCCCCCCCCCC [(2S,3R), ceramide-II of erythro (2S,3R) type]",2.5 mg/hr/cm2,8.2%,2.5 mg/hr/cm2,more superior to other types,lowest solubility,0.1%,2.8 g/m^2/hr,can recover to the TEWL value of the non-treated normal skin more rapidly,95 to 96 °C,22.4%,significantly higher water-holding capacity
"CCCCCCCCCCCCCCCCCC(=O)N[C@@H](CO)[C@@H](O)CCCCCCCCCCCCCCC [(2S,3S), threo (2S, 3S) type of ceramide-II]",3.6 mg/hr/cm2,,,,,,4.1 g/m^2/hr,,101 °C,,
